Reference: publication PMC9640990 (Frontiers in Pharmacology, 2022)

Experiments:
[1] = target: T1, hMDR1 (Homo sapiens, UniProt P08183); test: hMDR1-mediated efflux of rhodamine 123 in hMDR1-MDCK cells; type: cell-based; conditions: for efflux of MDR1-mediated rhodamine 123: concentration range 0.3 to 30 µM; for inhibitory effect on MDR1 activity: hMDR1-MDCK cells, co-incubation 0.3 to 30 µM
T1 construct: host or cells: MDCK

[2] = target: T2, hBCRP (Homo sapiens, UniProt Q9UNQ0); test: hBCRP-mediated efflux of lucifer yellow in hBCRP-MDCK cells; type: cell-based; conditions: for efflux of BCRP-mediated lucifer yellow: concentration range 0.3 to 30 µM; for inhibitory effect on BCRP activity: hBCRP-MDCK cells, co-incubation 0.3 to 30 µM
T2 construct: host or cells: MDCK
T2 sequence (Q9UNQ0 1-655): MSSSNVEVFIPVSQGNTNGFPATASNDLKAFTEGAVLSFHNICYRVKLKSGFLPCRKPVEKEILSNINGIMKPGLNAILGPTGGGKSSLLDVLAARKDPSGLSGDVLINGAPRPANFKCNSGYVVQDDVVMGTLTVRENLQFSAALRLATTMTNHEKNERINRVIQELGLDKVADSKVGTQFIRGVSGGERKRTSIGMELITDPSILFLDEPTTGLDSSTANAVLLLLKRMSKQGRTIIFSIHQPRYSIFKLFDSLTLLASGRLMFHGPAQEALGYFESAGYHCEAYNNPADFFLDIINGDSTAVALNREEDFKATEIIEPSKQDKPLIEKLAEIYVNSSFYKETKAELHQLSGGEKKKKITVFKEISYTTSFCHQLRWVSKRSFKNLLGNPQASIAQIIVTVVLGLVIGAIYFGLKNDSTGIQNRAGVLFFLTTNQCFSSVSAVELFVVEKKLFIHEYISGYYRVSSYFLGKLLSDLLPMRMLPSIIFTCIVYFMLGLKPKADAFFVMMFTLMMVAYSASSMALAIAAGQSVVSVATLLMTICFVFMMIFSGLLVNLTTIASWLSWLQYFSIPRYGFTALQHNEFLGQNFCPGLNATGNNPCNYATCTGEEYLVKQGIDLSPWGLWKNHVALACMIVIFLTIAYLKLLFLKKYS
Description: Stably expressing cell lines of hOAT1-MDCK, hOAT3-MDCK, hOCT2-S2, hMDR1-MDCK, hBCRP-MDCK, and their mock cells were obtained from Japan Fuji Biomedical Co., Ltd. The cells were maintained in DMEM (Sigma) supplemented with 10% FCS, 1% non-essential amino acids (Sigma), and 2% L-glutamine. The medium for the Transwell® plates (Corning Costar, Cambridge, MA, United States) was supplemented with 0.1% gentamicin. Membrane filters were placed in a 12 mm well with 1.5 and 0.5 ml of culture medium in the basolateral and apical compartments, respectively. Cells were cultured at 37°C in an atmosphere of 5% CO2.
Briefly, the hOAT1-MDCK, hOAT3-MDCK, and hOCT2-S2 cells were trypsinized and suspended in the culture medium to provide a density of 1.5 × 10^5 cells/ml. […] After cultivation for 7 days, cells were washed twice and equilibrated for 30 min at 37°C with the pre-warmed HBSS buffer. […] The content of DMSO was below 1% and constant in all inhibition experiments. All experiments were performed in triplicate. The cell lysate and 3.0 ml of aquasol-2 scintillation fluid were put into a scintillation flask. […] IC50 values were determined by employing GraphPad Prism 9.

[3] = target: T3, hOCT2 (Homo sapiens, UniProt O15244); test: Inhibition of hOCT2-mediated uptake of 14C-TEA in hOCT2-S2 cells; type: cell-based; conditions: 14C-TEA 5 µM
T3 construct: host or cells: S2
T3 sequence (O15244 1-555): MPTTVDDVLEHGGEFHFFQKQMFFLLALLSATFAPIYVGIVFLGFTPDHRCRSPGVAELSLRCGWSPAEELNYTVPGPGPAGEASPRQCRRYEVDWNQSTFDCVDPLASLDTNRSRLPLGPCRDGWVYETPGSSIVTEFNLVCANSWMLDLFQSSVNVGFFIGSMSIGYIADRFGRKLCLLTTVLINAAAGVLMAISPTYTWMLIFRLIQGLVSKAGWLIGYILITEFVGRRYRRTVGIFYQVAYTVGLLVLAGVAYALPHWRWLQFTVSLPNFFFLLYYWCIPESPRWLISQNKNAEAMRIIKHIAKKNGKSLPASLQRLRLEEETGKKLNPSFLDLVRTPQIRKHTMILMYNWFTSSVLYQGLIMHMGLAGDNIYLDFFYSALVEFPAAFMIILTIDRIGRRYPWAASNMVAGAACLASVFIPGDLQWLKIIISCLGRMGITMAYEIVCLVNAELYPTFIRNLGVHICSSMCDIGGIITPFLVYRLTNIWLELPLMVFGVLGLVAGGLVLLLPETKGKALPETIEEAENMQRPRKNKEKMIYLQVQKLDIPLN
Description: Considering the relative exposure characteristics, GA and PCA were selected as PK-marker and Q-marker components of PCE in previous studies ([Ma et al., 2015]; [Ma et al., 2016]; [Li et al., 2021b]). In this study, we investigated the concentration-dependent inhibitions of GA and PCA on multiple transporters, including OAT1, OAT3, OCT2, MDR1, and BCRP. Stably expressing cell lines of hOAT1-MDCK, hOAT3-MDCK, hOCT2-S2, hMDR1-MDCK, hBCRP-MDCK, and their mock cells were obtained from Japan Fuji Biomedical Co., Ltd. The cells were maintained in DMEM (Sigma) supplemented with 10% FCS, 1% non-essential amino acids (Sigma), and 2% L-glutamine. The medium for the Transwell® plates (Corning Costar, Cambridge, MA, United States) was supplemented with 0.1% gentamicin. […]
Briefly, the hOAT1-MDCK, hOAT3-MDCK, and hOCT2-S2 cells were trypsinized and suspended in the culture medium to provide a density of 1.5 × 10^5 cells/ml. […] The radioactive intensity of ^14C-PAH, ^3H-ES, and ^14C-TEA was measured using a Tri-Carb 2910TR scintillator (PerkinElmer, United States). Fluorescence was measured at 485 nm (excitation) and 546 nm (emission) for rhodamine 123, and 425 nm (excitation) and 528 nm (emission) for lucifer yellow. IC50 values were determined by employing GraphPad Prism 9.

[4] = test system: Caco-2 cells; test: Bidirectional transport of ciprofloxacin in Caco-2 cells; type: in vitro ADME; conditions: GA 50 μM, PCA 50 μM, PCE 100 mg/ml, p < 0.05
Description: The Caco-2 cell lines were obtained from the National Collection of Authenticated Cell Cultures (NCACC, Shanghai, China). The bi-directional transport assay was performed on 12-mm Transwell Permeable Supports with 0.4 mm-pore polycarbonate membrane insert and 1.12 cm^2 growth areas. […] The cells were seeded at a density of 3×10^5 cells/well, incubated at 37°C and 5% CO2, and cultured for 21 days with replacement of cell culture medium supplemented with 1% penicillin-streptomycin every second day. Membrane filters were placed in a 12 mm well with 1.5 and 0.5 ml of culture medium in the basolateral and apical compartments, respectively. TEER was measured as an indication of an intact monolayer using a Millicell ERS voltohmmeter (Millipore, Merck). […] Aliquots of 50 μl were collected from the acceptor compartment at 0.5 h. The apparent permeability coefficient (P app) was calculated using the following formula: P app = (dC/dt) × V r/(A × C 0), where dC/dt is the alteration in concentration over time, V r is the volume of the receiver compartment, A is the area of the cell monolayer, and C 0 is the initial concentration in the donor compartment. The permeation of drug from the apical (A) to the basolateral (B) side of the cells (P app,A-B) is compared with the permeation in the opposite direction (P app,B-A).

[5] = test system: MDR1 mRNA; test: MDR1 mRNA expression in Caco-2 cells (qRT-PCR); type: cell-based; conditions: 48 h pretreatment, bosentan 20 μM, GA 50 μM, PCA 50 μM, PCE 100 mg/ml
Description: (§1) After the incubation period, cells were harvested from the Transwell inserts for RNA extraction. […] Real-time quantitative PCR (qRT-PCR) was performed on an ABI Prism 7900HT Sequence Detection System (Applied Biosystems, Foster City, CA, United States) for the analysis of MDR1 and BCRP genes. Primers of housekeeping gene β-actin was used as internal controls. […] The relative gene expression levels were determined using the comparative CT method (ΔΔCT method). The cut-off CT was set at 35 cycles for all analyses. An arbitrary classification system was assigned to the data, designating relative expression levels >2 as high mRNA expression, levels between 2 and 1 as moderate mRNA expression, levels between 1 and 0.1 as low mRNA expression and levels <0.1 as unexpressed.

[6] = test system: BCRP mRNA; test: BCRP mRNA expression in Caco-2 cells (qRT-PCR); type: cell-based; conditions: 48 h pretreatment, bosentan 20 μM, GA 50 μM, PCA 50 μM, PCE 100 mg/ml
Description: as §1

[7] = test system: Staphylococcus aureus and Escherichia coli; set-up: method as in Fifere et al., 2022; conditions: in vitro, especially that of levofloxacin; ref Fifere et al., 2022; cited from earlier work

T1 sequence (P08183 whole entry): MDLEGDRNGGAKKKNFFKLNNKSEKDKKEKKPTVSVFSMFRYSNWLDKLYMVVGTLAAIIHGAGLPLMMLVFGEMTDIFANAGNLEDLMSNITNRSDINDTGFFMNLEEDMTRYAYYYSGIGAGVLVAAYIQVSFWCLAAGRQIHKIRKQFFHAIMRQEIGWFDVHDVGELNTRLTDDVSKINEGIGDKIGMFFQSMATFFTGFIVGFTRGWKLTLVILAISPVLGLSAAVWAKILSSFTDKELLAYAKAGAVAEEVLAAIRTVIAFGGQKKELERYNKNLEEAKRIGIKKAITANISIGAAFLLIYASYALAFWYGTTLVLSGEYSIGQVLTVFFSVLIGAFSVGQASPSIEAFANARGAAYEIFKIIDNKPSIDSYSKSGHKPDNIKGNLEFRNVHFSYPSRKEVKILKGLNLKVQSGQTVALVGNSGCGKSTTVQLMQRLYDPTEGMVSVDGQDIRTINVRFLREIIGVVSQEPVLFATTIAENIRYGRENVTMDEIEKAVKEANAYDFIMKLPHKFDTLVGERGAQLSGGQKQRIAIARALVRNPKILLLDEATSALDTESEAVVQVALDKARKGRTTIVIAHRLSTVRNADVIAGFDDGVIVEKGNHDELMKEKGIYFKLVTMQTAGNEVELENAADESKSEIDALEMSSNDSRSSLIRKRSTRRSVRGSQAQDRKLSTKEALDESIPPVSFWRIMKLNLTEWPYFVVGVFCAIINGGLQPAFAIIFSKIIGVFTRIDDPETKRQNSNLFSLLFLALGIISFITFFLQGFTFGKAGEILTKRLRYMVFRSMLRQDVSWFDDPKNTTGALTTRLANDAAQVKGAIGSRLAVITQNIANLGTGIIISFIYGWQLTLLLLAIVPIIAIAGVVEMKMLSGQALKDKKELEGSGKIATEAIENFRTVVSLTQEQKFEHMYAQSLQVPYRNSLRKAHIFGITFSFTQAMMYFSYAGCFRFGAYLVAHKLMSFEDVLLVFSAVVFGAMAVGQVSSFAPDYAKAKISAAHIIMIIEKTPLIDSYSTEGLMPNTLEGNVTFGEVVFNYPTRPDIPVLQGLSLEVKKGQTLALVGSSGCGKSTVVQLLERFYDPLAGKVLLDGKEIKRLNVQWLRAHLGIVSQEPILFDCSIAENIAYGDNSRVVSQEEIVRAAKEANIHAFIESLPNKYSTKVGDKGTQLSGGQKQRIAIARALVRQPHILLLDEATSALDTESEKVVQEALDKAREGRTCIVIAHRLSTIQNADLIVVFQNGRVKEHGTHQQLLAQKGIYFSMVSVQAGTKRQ

Structure (SMILES) | efflux of MDR1-mediated rhodamine 123 [1] | inhibitory effect on MDR1 activity [1] | efflux of BCRP-mediated lucifer yellow [2] | inhibitory effect on BCRP activity [2] | IC50 [3] | change of net efflux ratio of CIP after co-treatment [4] | increase of MDR1 (P-gp) mRNA expression [5] | increase of BCRP mRNA expression [6] | increase of the antibacterial activity [7]
O=C(O)c1cc(O)c(O)c(O)c1 [GA, Gallic acid] | concentration-dependent increase | no inhibitory effect | concentration-dependent increase | no inhibitory effect |  |  |  |  | 
O=C(O)c1ccc(O)c(O)c1 [PCA, protocatechuic acid] | concentration-dependent increase | no inhibitory effect | concentration-dependent increase | no inhibitory effect | 107 µM | significant improvement | 3.56 fold | 3.33 fold | up to 50%
